Assay results from publication PMC9781320 (Marine Drugs, 2022).
Positions of bridges follow the written chain, without caps; N, C: chain ends. Residues, ends and D or L forms follow the SMILES beside them.

Columns and labels:
α9α10 nAChR = molecular target: T1, α9α10 nAChR (Rattus norvegicus, UniProt P43144+Q9JLB5); format: cell-based; conditions: SEM
T1 construct: expressed in transfected cells; host or cells: Xenopus oocytes, cRNA injected

α3β2 nAChR = molecular target: T2, α3β2 nAChR (Rattus norvegicus, UniProt P04757+P12390); format: cell-based; conditions: SEM
T2 construct: expressed in transfected cells; host or cells: Xenopus oocytes, cRNA injected

GABABR-coupled CaV2.2 [1] = molecular target: T3, GABABR-coupled CaV2.2 (Homo sapiens, UniProt O75899+Q9UBS5); assay: cell-based; set-up: species or system rat Cav2.2; conditions: for inhibition at 1 µM: HEK293, read-out: Inhibition Efficacy (1 µM)%, SEM; for IC50: IC50 (nM) (95% Confidence Interval)
T3 construct: expressed in transfected cells

α7 nAChR = molecular target: T4, α7 nAChR (Rattus norvegicus, UniProt Q05941); format: cell-based; conditions: SEM
T4 construct: expressed in transfected cells; host or cells: Xenopus oocytes, cRNA injected

CaV2.2 = molecular target: T5, CaV2.2 (Rattus norvegicus, UniProt Q02294); format: cell-based
T5 construct: expressed in transfected cells; host or cells: HEK293

α4β2 nAChR = molecular target: T6, α4β2 nAChR (Rattus norvegicus, UniProt P09483+P12390); format: cell-based; conditions: SEM
T6 construct: expressed in transfected cells; host or cells: Xenopus oocytes, cRNA injected

α2β4 nAChR = molecular target: T7, α2β4 nAChR (Rattus norvegicus, UniProt P12389+P12392); format: cell-based; conditions: SEM
T7 construct: expressed in transfected cells; host or cells: Xenopus oocytes, cRNA injected

α4β4 nAChR = molecular target: T8, α4β4 nAChR (Rattus norvegicus, UniProt P09483+P12392); format: cell-based; conditions: SEM
T8 construct: expressed in transfected cells; host or cells: Xenopus oocytes, cRNA injected

α3β4 nAChR = molecular target: T9, α3β4 nAChR (Rattus norvegicus, UniProt P04757+P12392); format: cell-based; conditions: SEM
T9 construct: expressed in transfected cells; host or cells: Xenopus oocytes, cRNA injected

GABABR-coupled CaV2.2 [2] = conditions: cited from earlier work

T3 sequence (Q9UBS5 15-961 limits assumed): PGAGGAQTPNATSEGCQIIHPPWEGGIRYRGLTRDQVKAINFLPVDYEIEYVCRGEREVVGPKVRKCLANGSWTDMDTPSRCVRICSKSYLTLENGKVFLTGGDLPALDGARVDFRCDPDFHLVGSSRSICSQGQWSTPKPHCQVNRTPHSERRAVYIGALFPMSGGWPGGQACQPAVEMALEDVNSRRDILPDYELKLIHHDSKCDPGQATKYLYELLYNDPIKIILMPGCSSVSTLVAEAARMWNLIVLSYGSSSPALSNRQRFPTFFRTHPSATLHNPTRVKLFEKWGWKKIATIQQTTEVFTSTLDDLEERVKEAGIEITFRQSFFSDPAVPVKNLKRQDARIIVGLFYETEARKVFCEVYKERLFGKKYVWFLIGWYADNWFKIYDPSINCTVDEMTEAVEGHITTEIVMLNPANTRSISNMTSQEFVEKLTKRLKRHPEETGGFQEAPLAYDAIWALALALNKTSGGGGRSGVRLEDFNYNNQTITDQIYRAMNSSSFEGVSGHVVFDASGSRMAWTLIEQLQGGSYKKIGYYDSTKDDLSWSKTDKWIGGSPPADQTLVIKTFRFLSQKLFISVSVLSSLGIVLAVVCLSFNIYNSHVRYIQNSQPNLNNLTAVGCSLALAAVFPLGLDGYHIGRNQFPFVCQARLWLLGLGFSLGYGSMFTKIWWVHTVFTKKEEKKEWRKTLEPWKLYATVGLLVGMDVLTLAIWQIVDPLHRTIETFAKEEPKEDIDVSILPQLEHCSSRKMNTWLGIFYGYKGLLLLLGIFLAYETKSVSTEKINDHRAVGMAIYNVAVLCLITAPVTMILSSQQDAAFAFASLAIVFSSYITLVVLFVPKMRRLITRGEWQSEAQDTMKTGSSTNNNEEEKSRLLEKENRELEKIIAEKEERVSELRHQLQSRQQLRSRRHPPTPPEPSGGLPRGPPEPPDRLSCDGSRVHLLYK
T3 sequence (O75899 42-941): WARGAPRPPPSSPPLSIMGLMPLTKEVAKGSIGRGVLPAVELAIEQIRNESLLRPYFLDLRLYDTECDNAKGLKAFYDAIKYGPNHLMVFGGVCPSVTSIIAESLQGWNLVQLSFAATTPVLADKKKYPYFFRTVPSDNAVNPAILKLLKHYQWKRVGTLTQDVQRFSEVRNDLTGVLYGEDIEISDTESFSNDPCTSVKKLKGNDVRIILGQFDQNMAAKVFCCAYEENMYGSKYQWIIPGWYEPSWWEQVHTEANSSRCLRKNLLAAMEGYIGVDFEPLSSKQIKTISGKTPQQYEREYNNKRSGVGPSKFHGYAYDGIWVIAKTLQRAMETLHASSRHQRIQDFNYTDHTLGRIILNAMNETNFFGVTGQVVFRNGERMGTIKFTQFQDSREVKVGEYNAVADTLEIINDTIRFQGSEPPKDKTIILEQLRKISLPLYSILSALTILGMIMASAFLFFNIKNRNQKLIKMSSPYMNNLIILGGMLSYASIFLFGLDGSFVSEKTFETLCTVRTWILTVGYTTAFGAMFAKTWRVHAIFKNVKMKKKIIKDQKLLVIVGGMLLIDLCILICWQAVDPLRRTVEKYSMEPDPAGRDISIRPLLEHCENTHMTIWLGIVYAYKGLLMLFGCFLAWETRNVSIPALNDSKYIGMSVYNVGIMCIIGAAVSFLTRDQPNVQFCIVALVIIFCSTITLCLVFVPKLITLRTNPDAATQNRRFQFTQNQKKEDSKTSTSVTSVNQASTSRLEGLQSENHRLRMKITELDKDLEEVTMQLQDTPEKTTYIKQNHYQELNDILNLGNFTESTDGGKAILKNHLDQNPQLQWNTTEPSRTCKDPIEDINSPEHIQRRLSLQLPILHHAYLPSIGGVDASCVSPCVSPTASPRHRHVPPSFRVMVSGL
T7 sequence (P12389 28-511 limits assumed): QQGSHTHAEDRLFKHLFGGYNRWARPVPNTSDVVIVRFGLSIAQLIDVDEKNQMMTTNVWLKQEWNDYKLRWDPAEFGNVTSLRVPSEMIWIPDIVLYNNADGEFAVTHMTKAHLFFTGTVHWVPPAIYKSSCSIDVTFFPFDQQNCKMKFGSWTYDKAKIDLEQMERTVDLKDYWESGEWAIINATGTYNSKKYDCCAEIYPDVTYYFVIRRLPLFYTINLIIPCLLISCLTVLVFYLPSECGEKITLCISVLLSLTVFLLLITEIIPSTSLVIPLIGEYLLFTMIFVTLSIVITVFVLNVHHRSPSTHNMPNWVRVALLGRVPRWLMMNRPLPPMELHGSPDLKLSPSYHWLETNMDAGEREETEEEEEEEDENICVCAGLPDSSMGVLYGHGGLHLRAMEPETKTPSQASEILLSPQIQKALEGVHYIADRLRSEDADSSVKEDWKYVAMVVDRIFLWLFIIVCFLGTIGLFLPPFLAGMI
T7 sequence (P12392 21-495 limits assumed): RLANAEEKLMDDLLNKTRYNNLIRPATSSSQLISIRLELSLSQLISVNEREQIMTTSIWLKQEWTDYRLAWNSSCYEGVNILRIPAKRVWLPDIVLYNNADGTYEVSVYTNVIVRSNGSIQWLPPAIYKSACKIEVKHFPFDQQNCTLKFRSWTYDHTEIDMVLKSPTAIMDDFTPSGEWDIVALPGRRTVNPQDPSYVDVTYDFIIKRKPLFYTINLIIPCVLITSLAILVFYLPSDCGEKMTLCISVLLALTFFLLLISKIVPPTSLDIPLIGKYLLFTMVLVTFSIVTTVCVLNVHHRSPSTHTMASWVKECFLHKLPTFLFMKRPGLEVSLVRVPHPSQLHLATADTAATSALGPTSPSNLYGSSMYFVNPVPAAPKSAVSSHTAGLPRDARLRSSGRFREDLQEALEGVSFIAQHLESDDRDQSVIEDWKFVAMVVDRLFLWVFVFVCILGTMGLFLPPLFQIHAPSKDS
T2 sequence (P04757 26-499 limits assumed): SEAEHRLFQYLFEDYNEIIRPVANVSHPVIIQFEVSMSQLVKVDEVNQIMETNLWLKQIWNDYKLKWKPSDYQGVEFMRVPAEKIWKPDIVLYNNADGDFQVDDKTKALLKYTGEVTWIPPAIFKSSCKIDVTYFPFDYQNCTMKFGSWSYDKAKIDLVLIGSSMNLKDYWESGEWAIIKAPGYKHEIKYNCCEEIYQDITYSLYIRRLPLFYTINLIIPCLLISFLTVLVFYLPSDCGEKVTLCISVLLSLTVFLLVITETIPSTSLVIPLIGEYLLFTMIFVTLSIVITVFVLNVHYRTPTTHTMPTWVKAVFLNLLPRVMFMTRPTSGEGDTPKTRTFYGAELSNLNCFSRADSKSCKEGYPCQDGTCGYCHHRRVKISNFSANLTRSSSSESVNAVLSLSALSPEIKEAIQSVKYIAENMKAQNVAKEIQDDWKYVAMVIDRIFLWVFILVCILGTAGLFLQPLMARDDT
T2 sequence (P12390 25-500 limits assumed): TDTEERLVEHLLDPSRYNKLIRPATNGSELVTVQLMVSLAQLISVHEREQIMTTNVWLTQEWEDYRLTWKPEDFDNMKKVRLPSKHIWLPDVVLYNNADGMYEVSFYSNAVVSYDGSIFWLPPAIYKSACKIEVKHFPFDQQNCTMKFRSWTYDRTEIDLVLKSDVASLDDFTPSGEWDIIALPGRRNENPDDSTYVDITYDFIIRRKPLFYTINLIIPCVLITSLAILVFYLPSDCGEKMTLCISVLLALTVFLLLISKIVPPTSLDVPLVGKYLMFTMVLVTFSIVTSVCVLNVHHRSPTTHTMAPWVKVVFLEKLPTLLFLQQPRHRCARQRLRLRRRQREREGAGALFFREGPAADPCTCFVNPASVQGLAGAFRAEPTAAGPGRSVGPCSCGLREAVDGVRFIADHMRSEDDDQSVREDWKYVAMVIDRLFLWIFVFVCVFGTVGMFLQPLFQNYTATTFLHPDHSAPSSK
T9 sequence (P04757 26-499 limits assumed): as the sequence (P04757 26-499 limits assumed) above
T9 sequence (P12392 21-495 limits assumed): as the sequence (P12392 21-495 limits assumed) above
T4 sequence (Q05941 23-502 limits assumed): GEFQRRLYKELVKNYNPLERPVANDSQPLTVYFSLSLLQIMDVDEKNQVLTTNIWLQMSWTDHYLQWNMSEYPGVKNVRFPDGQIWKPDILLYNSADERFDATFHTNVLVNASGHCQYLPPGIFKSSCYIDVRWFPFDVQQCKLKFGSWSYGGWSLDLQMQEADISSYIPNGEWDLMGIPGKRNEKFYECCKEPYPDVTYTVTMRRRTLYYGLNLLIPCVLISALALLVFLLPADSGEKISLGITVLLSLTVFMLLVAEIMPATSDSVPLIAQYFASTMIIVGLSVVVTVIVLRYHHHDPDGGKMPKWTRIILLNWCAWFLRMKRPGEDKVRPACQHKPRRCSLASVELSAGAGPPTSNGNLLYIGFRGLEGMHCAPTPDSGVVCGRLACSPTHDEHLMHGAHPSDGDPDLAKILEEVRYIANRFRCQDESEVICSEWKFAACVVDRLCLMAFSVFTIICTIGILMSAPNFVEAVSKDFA
T8 sequence (P09483 31-630 limits assumed): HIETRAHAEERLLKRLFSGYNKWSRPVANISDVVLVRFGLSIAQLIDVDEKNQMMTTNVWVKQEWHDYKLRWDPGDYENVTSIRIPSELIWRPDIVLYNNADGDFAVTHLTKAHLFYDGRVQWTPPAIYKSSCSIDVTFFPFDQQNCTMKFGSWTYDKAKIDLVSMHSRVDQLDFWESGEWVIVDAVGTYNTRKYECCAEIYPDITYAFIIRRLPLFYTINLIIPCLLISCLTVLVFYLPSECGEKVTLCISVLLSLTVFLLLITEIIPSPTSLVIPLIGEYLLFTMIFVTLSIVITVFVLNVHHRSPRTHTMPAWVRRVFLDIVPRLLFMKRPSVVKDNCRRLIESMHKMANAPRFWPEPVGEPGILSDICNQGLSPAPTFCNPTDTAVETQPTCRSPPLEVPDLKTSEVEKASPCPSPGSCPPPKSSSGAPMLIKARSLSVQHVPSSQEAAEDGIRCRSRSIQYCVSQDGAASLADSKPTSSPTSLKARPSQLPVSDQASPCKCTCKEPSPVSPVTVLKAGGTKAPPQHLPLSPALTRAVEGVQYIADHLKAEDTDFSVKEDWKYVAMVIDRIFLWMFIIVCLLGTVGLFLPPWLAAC
T8 sequence (P12392 21-495 limits assumed): as the sequence (P12392 21-495 limits assumed) above

Which results are given for `C[C@@H]1NC(=O)[C@H](Cc2ccccc2)NC(=O)[C@@H]2CSSC[C@H](NC(=O)[C@@H](NC(=O)CN)CSSC[C@@H](C(N)=O)NC(=O)[C@H](CC(=O)O)NC(=O)[C@@H]3CCCN3C(=O)[C@H](CC(N)=O)NC(=O)[C@H]([C@@H](C)O)NC1=O)C(=O)N[C@@H](CO)C(=O)N[C@@H](Cc1ccc(O)cc1)C(=O)N1CCC[C@H]1C(=O)N[C@@H](CCCNC(=N)N)C(=O)N2` [AuIB[P7R](ribbon)] (H-GCCSYPRCFATNPDC-NH2; disulfide 2-15, 3-8)?
Inhibitory effect on α9α10 nAChR (α9α10 nAChR): 5.09 ± 7.85%; Inhibitory effect on α3β2 nAChR (α3β2 nAChR): 29.25 ± 12.65%; inhibition at 1 µM (GABABR-coupled CaV2.2 [1]): 51.6 ± 1.86%; IC50 (GABABR-coupled CaV2.2 [1]): 0.74 nM; Inhibitory effect on α7 nAChR (α7 nAChR): 17.00 ± 0.35%; direct inhibitory effect on CaV2.2 (CaV2.2): 14.87 ± 2.42%; Inhibitory effect on α4β2 nAChR (α4β2 nAChR): 35.92 ± 12.50%; Inhibitory effect on α2β4 nAChR (α2β4 nAChR): 39.43 ± 6.31%; Inhibitory effect on α4β4 nAChR (α4β4 nAChR): 30.44 ± 8.03%; Inhibitory effect on α3β4 nAChR (α3β4 nAChR): 39.27 ± 6.45%

For `CC[C@H](C)[C@@H]1NC(=O)[C@H](CC(=O)O)NC(=O)[C@@H]2CCCN2C(=O)[C@H](CC(N)=O)NC(=O)[C@H]([C@@H](C)O)NC(=O)[C@H](C)NC(=O)[C@H](Cc2ccccc2)NC(=O)[C@@H]2CSSC[C@H](NC(=O)CN)C(=O)N[C@@H](CSSC[C@@H](C(N)=O)NC1=O)C(=O)N[C@@H](CO)C(=O)N[C@@H](Cc1ccc(O)cc1)C(=O)N1CCC[C@H]1C(=O)N1CCC[C@H]1C(=O)N2` [AuIB[+15I]], which inhibition at 1 µM (GABABR-coupled CaV2.2 [1]) is on record?
The inhibition at 1 µM was 30.4 ± 3.26%.

With Vc1.1 as the compound, how does the IC50 (GABABR-coupled CaV2.2 [2]) read?
Its IC50 is 2.38 nM.

Which results are given for `C[C@@H]1NC(=O)[C@H](Cc2ccccc2)NC(=O)[C@@H]2CSSC[C@H](NC(=O)CN)C(=O)N[C@@H](CSSC[C@@H](C(N)=O)NC(=O)[C@H](CC(=O)O)NC(=O)[C@@H]3CCCN3C(=O)[C@H](CC(N)=O)NC(=O)[C@H]([C@@H](C)O)NC1=O)C(=O)N[C@@H](CO)C(=O)N[C@@H](Cc1ccc(O)cc1)C(=O)N1CCC[C@H]1C(=O)N1CCC[C@H]1C(=O)N2` [AuIB(globular), reference compound]?
inhibition at 1 µM (GABABR-coupled CaV2.2 [1]): 27.4 ± 2.05%; IC50 (GABABR-coupled CaV2.2 [1]): 1.93 nM

For `CC(C)C[C@@H]1NC(=O)[C@H](CC(=O)O)NC(=O)[C@@H]2CCCN2C(=O)[C@H](CC(N)=O)NC(=O)[C@H]([C@@H](C)O)NC(=O)[C@H](C)NC(=O)[C@H](Cc2ccccc2)NC(=O)[C@@H]2CSSC[C@H](NC(=O)CN)C(=O)N[C@@H](CSSC[C@@H](C(N)=O)NC1=O)C(=O)N[C@@H](CO)C(=O)N[C@@H](Cc1ccc(O)cc1)C(=O)N1CCC[C@H]1C(=O)N1CCC[C@H]1C(=O)N2` [AuIB[+15L]], which inhibition at 1 µM (GABABR-coupled CaV2.2 [1]) is on record?
The inhibition at 1 µM was 27.9 ± 1.37%.
